Source: patent US11203601B2, “Tricyclic compounds as glycogen synthase kinase 3 (GSK3) inhibitors and uses thereof” (The Broad Institute, Inc., priority 2017, dated 2021)

Experiments:
[1] = target: TRKB (Homo sapiens (Human), UniProt Q16620); experiment: Carna kinome panel; assay type: biochemical; details: read-out: % Inhibition at 10 μM of the test compound
[2] = target: FES (Homo sapiens (Human), UniProt P07332); experiment: Carna kinome panel; assay type: biochemical; details: read-out: % Inhibition at 10 μM of the test compound
[3] = target: FLT4 (Homo sapiens (Human), UniProt P35916); experiment: Carna kinome panel; assay type: biochemical; details: read-out: % Inhibition at 10 μM of the test compound
[4] = target: PIM2 (Homo sapiens (Human), UniProt Q9P1W9); experiment: Carna kinome panel; assay type: biochemical; details: read-out: % Inhibition at 10 μM of the test compound
[5] = target: PHKG1 (Homo sapiens (Human), UniProt Q16816); experiment: Carna kinome panel; assay type: biochemical; details: read-out: % Inhibition at 10 μM of the test compound
[6] = target: Erk2 (Homo sapiens (Human), UniProt P28482); experiment: Carna kinome panel; assay type: biochemical; details: read-out: % Inhibition at 10 μM of the test compound
Sequence of Erk2 (P28482 whole entry, looked up): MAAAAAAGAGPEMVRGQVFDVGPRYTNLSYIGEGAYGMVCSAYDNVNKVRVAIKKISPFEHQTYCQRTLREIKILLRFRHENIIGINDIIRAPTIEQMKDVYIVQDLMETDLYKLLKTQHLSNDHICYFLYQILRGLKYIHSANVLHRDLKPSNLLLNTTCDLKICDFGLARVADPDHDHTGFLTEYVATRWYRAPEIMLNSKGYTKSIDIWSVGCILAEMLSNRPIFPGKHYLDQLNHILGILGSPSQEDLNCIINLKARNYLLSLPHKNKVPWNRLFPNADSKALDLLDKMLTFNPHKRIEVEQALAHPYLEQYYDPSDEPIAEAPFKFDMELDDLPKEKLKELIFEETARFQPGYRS

[7] = target: TIE2 (Homo sapiens (Human), UniProt Q02763); experiment: Carna kinome panel; assay type: biochemical; details: read-out: % Inhibition at 10 μM of the test compound
[8] = target: BTK (Homo sapiens (Human), UniProt Q06187); experiment: Carna kinome panel; assay type: biochemical; details: read-out: % Inhibition at 10 μM of the test compound
[9] = target: DYRK1B (Homo sapiens (Human), UniProt Q9Y463); experiment: Carna kinome panel; assay type: biochemical; details: read-out: % Inhibition at 10 μM of the test compound
Procedure: (§1) Briefly, a selection of compounds was screened against a panel of kinases at a single concentration of 10 μM. […] This was completed using one of two assays, depending on the kinase being examined: 1) IMAP Assay. A solution of 4× inhibitor, 4× substrate/ATP/metal solution and 2× kinase solution was prepared with assay buffer (20 mM HEPES, 0.01% Tween-20, 2 mM DTT, pH 7.4) and mixed, then incubated in 384-well black plates for 1 hour at room temperature. The IMAP binding reagent (IMAP Screening Express kit; Molecular Devices) was added to each well and incubated for 30 minutes. […] 2) Off-Chip Mobility Shift Assay (MSA). A solution of 4× inhibitor, 4× substrate/ATP/metal solution and 2× kinase solution was prepared with assay buffer (20 mM HEPES, 0.01% Triton X-100, 2 mM DTT, pH 7.5) and mixed, then incubated in 384-well plates for 1 or 5 hours depending on the kinase, at room temperature. Termination buffer (QuickScout Screening assist MSA; Carna Biosciences) was added to each well. The entire reaction mixture was then applied to a LabChip3000 system (Caliper Life Science), and the product and substrate peptide peaks were separated and quantified. […] The entire reaction mixture was then applied to a LabChip3000 system (Caliper Life Science), and the product and substrate peptide peaks were separated and quantified.

[10] = target: GSK3α (Homo sapiens (Human), UniProt P49840); experiment: biochemical
Sequence of GSK3α (P49840 whole entry): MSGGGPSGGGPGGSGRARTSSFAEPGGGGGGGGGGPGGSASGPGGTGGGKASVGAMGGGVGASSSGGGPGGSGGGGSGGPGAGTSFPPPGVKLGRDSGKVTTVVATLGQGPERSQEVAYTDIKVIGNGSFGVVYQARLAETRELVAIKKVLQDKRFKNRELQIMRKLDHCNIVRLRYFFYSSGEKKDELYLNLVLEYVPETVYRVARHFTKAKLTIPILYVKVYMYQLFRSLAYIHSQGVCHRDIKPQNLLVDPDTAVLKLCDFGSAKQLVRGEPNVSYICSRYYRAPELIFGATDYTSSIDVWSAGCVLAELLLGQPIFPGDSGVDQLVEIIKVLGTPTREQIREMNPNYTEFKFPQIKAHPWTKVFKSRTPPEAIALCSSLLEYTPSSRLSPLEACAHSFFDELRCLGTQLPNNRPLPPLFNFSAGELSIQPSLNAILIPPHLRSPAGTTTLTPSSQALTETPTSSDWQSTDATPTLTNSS
Procedure: (§2) A selection of compounds was screened against a selected panel of kinases based on single point inhibitory ability to determine absolute inhibitory activity, leading to selectivity measurements. The assay utilized was identical to that of the single point inhibitory activity determination (MSA) but run in dose response. A solution of 4× inhibitor (5 μL), 4× substrate/ATP Metal solution (5 μL), and 2× Kinase solution (10 μL) was prepared with assay buffer (20 mM HEPES, 0.01% Triton X-100, 2 mM DTT, pH 7.5) and mixed/incubated in 384 well plates for 1 or 5 hours depending on the kinase, at room temperature. A solution of termination buffer (QuickScout Screening assist MSA; Carna Biosciences) (60 μL) was added to each well. The entire reaction mixture was then applied to a LabChip3000 system (Caliper Life Science) and the product and substrate peptide peaks were separated and quantified.
(§3) Briefly, a selection of compounds was screened against a panel of kinases at a single concentration of 10 μM. […] The entire reaction mixture was then applied to a LabChip3000 system (Caliper Life Science), and the product and substrate peptide peaks were separated and quantified. […] The entire reaction mixture was then applied to a LabChip3000 system (Caliper Life Science), and the product and substrate peptide peaks were separated and quantified.

[11] = target: ACK (Homo sapiens (Human), UniProt Q07912); experiment: Carna kinome panel; assay type: biochemical; details: read-out: % Inhibition at 10 μM of the test compound
[12] = target: TYRO3 (Homo sapiens (Human), UniProt Q06418); experiment: Carna kinome panel; assay type: biochemical; details: read-out: % Inhibition at 10 μM of the test compound
[13] = target: KIT(V654A) (Homo sapiens (Human), UniProt P10721, V654A); experiment: Carna kinome panel; assay type: biochemical; details: read-out: % Inhibition at 10 μM of the test compound
[14] = target: MAP2K5_Cascade (Homo sapiens (Human), UniProt Q13163); experiment: Carna kinome panel; assay type: biochemical; details: read-out: % Inhibition at 10 μM of the test compound
Sequence of MAP2K5_Cascade (Q13163 whole entry): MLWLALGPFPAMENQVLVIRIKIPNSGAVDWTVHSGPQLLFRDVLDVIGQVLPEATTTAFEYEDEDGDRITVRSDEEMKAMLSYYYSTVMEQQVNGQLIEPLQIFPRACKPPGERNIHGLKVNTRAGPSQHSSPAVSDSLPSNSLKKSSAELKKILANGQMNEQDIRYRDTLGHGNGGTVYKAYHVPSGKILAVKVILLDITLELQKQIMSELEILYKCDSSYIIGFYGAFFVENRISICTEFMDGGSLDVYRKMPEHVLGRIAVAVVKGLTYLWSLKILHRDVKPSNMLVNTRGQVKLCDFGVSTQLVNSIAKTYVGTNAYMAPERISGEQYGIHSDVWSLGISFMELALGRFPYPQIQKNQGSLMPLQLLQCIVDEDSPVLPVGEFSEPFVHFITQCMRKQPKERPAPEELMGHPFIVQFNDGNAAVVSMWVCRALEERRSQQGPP

[15] = target: PHKG2 (Homo sapiens (Human), UniProt P15735); experiment: Carna kinome panel; assay type: biochemical; details: read-out: % Inhibition at 10 μM of the test compound
[16] = target: PKCβ2 (Homo sapiens (Human), UniProt P05771); experiment: Carna kinome panel; assay type: biochemical; details: read-out: % Inhibition at 10 μM of the test compound
[17] = target: MLK3_Cascade (Homo sapiens (Human), UniProt Q16584); experiment: Carna kinome panel; assay type: biochemical; details: read-out: % Inhibition at 10 μM of the test compound
Sequence of MLK3_Cascade (Q16584 whole entry): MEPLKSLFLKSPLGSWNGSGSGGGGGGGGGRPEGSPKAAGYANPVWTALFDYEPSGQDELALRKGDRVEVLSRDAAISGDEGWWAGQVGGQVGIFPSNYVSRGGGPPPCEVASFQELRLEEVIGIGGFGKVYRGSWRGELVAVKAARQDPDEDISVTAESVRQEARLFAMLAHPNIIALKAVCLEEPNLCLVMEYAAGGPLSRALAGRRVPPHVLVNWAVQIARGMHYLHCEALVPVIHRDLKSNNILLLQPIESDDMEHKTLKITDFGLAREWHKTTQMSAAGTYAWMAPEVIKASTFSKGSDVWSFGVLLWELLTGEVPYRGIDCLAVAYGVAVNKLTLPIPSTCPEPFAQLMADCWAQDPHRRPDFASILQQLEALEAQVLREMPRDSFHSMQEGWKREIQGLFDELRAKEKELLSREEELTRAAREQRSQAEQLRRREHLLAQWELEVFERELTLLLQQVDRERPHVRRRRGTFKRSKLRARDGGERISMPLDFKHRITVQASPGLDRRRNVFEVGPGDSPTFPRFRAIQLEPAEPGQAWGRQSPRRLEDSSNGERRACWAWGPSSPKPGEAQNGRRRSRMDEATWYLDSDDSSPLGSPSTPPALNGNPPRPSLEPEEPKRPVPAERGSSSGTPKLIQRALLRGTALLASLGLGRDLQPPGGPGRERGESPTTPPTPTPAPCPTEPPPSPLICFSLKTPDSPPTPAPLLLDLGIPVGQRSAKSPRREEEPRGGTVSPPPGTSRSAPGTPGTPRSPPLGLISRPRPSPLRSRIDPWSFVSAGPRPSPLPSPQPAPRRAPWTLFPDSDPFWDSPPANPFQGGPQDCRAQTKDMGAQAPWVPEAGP

[18] = target: IRAK1 (Homo sapiens (Human), UniProt P51617); experiment: Carna kinome panel; assay type: biochemical; details: read-out: % Inhibition at 10 μM of the test compound
[19] = target: ROS (Homo sapiens (Human), UniProt P08922); experiment: Carna kinome panel; assay type: biochemical; details: read-out: % Inhibition at 10 μM of the test compound
[20] = target: BRAF(V600E)_Cascade (Homo sapiens (Human), UniProt P15056, V600E); experiment: Carna kinome panel; assay type: biochemical; details: read-out: % Inhibition at 10 μM of the test compound
[21] = target: CDK5/p25 (Homo sapiens (Human), UniProt Q00535); experiment: Carna kinome panel; assay type: biochemical; details: read-out: % Inhibition at 10 μM of the test compound
[22] = target: HIPK1 (Homo sapiens (Human), UniProt Q86Z02); experiment: Carna kinome panel; assay type: biochemical; details: read-out: % Inhibition at 10 μM of the test compound
[23] = target: AKT2 (Homo sapiens (Human), UniProt P31751); experiment: Carna kinome panel; assay type: biochemical; details: read-out: % Inhibition at 10 μM of the test compound
[24] = target: PDGFRα(V561D) (Homo sapiens (Human), UniProt P16234, V561D); experiment: Carna kinome panel; assay type: biochemical; details: read-out: % Inhibition at 10 μM of the test compound
[25] = target: MET(M1250T) (Homo sapiens (Human), UniProt P08581, M1250T); experiment: Carna kinome panel; assay type: biochemical; details: read-out: % Inhibition at 10 μM of the test compound
[26] = target: LOK (Homo sapiens (Human), UniProt O94804); experiment: Carna kinome panel; assay type: biochemical; details: read-out: % Inhibition at 10 μM of the test compound
[27] = target: EGFR(T790M) (Homo sapiens (Human), UniProt P00533, T790M); experiment: Carna kinome panel; assay type: biochemical; details: read-out: % Inhibition at 10 μM of the test compound
[28] = target: RET(G691S) (Homo sapiens (Human), UniProt P07949, G691S); experiment: Carna kinome panel; assay type: biochemical; details: read-out: % Inhibition at 10 μM of the test compound
Sequence of RET(G691S) (P07949 29-1114 G691S): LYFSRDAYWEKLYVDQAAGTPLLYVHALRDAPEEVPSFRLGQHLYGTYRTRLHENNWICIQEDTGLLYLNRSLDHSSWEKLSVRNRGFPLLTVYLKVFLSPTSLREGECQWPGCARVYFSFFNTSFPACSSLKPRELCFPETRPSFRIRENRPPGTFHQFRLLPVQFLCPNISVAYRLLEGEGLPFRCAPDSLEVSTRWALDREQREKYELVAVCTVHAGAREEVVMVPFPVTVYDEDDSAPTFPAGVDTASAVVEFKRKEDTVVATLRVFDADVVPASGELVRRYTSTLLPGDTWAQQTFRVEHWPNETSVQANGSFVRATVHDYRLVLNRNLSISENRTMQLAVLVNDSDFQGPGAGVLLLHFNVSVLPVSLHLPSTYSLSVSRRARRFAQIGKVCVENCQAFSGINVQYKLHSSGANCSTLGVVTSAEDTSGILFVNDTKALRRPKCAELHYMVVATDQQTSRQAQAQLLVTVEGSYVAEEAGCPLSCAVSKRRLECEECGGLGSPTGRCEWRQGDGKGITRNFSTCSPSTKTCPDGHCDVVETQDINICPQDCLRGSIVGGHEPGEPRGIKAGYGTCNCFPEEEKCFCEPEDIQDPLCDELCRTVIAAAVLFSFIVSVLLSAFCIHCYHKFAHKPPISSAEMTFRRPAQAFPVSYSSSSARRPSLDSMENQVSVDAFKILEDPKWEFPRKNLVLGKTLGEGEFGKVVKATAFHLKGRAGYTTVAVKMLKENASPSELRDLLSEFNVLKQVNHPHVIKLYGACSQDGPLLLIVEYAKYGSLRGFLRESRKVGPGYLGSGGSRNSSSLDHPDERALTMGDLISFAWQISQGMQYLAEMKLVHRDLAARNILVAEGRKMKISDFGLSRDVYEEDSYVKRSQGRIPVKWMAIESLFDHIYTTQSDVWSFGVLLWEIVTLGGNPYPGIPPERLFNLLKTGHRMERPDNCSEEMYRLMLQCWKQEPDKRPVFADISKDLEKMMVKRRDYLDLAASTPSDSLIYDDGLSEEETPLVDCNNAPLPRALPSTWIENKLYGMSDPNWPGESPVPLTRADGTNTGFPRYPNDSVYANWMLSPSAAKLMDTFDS

[29] = target: PKCγ (Homo sapiens (Human), UniProt P05129); experiment: Carna kinome panel; assay type: biochemical; details: read-out: % Inhibition at 10 μM of the test compound
[30] = target: JNK2 (Homo sapiens (Human), UniProt P45984); experiment: Carna kinome panel; assay type: biochemical; details: read-out: % Inhibition at 10 μM of the test compound
[31] = target: EPHA4 (Homo sapiens (Human), UniProt P54764); experiment: Carna kinome panel; assay type: biochemical; details: read-out: % Inhibition at 10 μM of the test compound
Sequence of EPHA4 (P54764 20-986): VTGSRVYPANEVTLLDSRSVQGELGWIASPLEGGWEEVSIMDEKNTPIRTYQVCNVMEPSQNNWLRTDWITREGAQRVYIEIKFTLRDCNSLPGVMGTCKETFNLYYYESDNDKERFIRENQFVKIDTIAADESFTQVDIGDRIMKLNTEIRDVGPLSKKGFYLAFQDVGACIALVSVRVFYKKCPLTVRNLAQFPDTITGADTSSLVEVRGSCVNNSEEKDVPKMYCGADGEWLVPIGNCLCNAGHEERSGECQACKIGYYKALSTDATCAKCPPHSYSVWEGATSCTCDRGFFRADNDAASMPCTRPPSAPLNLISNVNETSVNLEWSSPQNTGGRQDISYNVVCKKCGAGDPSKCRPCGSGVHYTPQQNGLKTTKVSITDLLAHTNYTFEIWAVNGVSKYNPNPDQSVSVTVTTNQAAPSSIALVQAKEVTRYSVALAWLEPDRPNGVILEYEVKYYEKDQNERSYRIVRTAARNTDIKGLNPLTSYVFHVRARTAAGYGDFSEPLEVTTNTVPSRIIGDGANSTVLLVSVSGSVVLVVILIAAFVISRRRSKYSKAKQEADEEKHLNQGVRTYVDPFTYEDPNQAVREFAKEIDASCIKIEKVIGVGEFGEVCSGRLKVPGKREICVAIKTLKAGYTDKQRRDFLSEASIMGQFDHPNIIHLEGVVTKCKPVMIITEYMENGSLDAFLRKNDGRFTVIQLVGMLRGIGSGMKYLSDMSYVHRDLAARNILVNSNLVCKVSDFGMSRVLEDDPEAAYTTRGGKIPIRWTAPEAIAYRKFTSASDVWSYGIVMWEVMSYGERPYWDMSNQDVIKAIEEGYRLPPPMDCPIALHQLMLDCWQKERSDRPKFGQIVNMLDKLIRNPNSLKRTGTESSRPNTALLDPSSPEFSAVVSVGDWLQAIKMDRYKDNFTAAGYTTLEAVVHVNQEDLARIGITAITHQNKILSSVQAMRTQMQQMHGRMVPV

[32] = target: CK1δ (Homo sapiens (Human), UniProt P48730); experiment: Carna kinome panel; assay type: biochemical; details: read-out: % Inhibition at 10 μM of the test compound
[33] = target: MRCKα (Homo sapiens (Human), UniProt Q5VT25); experiment: Carna kinome panel; assay type: biochemical; details: read-out: % Inhibition at 10 μM of the test compound
[34] = target: LTK (Homo sapiens (Human), UniProt P29376); experiment: Carna kinome panel; assay type: biochemical; details: read-out: % Inhibition at 10 μM of the test compound
Procedure: as §1

[35] = target: GSK3β (Homo sapiens (Human), UniProt P49841); experiment: Carna kinome panel; assay type: biochemical
Sequence of GSK3β (P49841 whole entry): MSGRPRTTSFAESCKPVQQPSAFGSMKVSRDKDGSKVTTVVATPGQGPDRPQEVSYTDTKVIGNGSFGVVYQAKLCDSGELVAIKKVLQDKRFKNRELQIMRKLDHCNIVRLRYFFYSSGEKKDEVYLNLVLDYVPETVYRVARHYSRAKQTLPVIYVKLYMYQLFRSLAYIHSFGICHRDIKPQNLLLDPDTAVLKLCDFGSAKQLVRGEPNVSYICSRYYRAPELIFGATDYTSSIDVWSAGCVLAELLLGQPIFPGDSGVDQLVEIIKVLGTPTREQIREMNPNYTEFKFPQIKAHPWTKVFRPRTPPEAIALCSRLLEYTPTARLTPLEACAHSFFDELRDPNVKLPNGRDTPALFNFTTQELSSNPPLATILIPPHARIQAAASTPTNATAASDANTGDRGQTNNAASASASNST
Procedure: as §2, §3

[36] = target: PDK1 (Homo sapiens (Human), UniProt O15530); experiment: Carna kinome panel; assay type: biochemical; details: read-out: % Inhibition at 10 μM of the test compound
[37] = target: FGFR3(K650E) (Homo sapiens (Human), UniProt P22607, K650E); experiment: Carna kinome panel; assay type: biochemical; details: read-out: % Inhibition at 10 μM of the test compound
[38] = target: CK1ε (Homo sapiens (Human), UniProt P49674); experiment: Carna kinome panel; assay type: biochemical; details: read-out: % Inhibition at 10 μM of the test compound
Sequence of CK1ε (P49674 whole entry, canonical isoform): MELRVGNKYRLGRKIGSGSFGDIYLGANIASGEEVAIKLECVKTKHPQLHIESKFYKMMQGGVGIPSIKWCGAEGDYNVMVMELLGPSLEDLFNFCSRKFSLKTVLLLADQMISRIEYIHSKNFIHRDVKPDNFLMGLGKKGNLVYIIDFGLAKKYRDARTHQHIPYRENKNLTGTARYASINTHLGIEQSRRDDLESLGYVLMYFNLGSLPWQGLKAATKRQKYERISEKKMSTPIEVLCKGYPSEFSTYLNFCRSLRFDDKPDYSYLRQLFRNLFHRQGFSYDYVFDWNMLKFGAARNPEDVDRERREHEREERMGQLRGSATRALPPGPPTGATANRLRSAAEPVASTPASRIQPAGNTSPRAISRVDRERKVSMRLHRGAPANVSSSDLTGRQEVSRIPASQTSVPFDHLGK

[39] = target: FYN(isoform b) (Homo sapiens (Human), UniProt P06241); experiment: Carna kinome panel; assay type: biochemical; details: read-out: % Inhibition at 10 μM of the test compound
[40] = read-out: % Inhibition at 10 μM of the test compound

Which inhibition at 10 µM [1] does the source give for `CCC1(c2ccccc2)C2=C(CC(C)(C)CC2=O)Nc2ncsc21` (centres unmarked) [Compound 1, 9-Ethyl-6,6-dimethyl-9-phenyl-5,6,7,9-tetrahydrothiazolo[4,5-b]quinolin-8(4H)-one] here?
Its inhibition at 10 µM is 16%.

And the inhibition at 10 µM [2]?
Its inhibition at 10 µM is -6.2%.

What about the inhibition at 10 µM [3] of the same molecule?
The inhibition at 10 µM was -0.2%.

And the inhibition at 10 µM [4]?
Its inhibition at 10 µM is 0.3%.

And the inhibition at 10 µM [5]?
The inhibition at 10 µM was 5.9%.

And the inhibition at 10 µM [6]?
The inhibition at 10 µM was 0.5%.

And the inhibition at 10 µM [7]?
The inhibition at 10 µM was 11.1%.

What about the inhibition at 10 µM [8] of the same molecule?
The inhibition at 10 µM was -1.6%.

What about the inhibition at 10 µM [9] of the same molecule?
The inhibition at 10 µM was -18.1%.

And the IC50 [10]?
Its IC50 is 31.3 nM.

And the inhibition at 10 µM [10, 40]?
The inhibition at 10 µM was 98%.

What about the inhibition at 10 µM [11] of the same molecule?
Its inhibition at 10 µM is -4.1%.

And the inhibition at 10 µM [12]?
Its inhibition at 10 µM is 3.8%.

And the inhibition at 10 µM [13]?
Its inhibition at 10 µM is -3.5%.

And the inhibition at 10 µM [14]?
The inhibition at 10 µM was 4.3%.

What about the inhibition at 10 µM [15] of the same molecule?
The inhibition at 10 µM was -5%.

What about the inhibition at 10 µM [16] of the same molecule?
Its inhibition at 10 µM is -10.7%.

And the inhibition at 10 µM [17]?
The inhibition at 10 µM was 7.3%.

And the inhibition at 10 µM [18]?
Its inhibition at 10 µM is -8.9%.

And the inhibition at 10 µM [19]?
Its inhibition at 10 µM is -0.2%.

And the inhibition at 10 µM [20]?
The inhibition at 10 µM was 6.1%.

What about the inhibition at 10 µM [21] of the same molecule?
Its inhibition at 10 µM is 41.2%.

And the inhibition at 10 µM [22]?
The inhibition at 10 µM was 0.3%.

What about the inhibition at 10 µM [23] of the same molecule?
Its inhibition at 10 µM is 1%.

And the inhibition at 10 µM [24]?
Its inhibition at 10 µM is 2.8%.

What about the inhibition at 10 µM [25] of the same molecule?
The inhibition at 10 µM was -4.2%.

And the inhibition at 10 µM [26]?
The inhibition at 10 µM was -4.7%.

What about the inhibition at 10 µM [27] of the same molecule?
Its inhibition at 10 µM is -13.8%.

And the inhibition at 10 µM [28]?
Its inhibition at 10 µM is 2.8%.

What about the inhibition at 10 µM [29] of the same molecule?
Its inhibition at 10 µM is -7.7%.

And the inhibition at 10 µM [30]?
Its inhibition at 10 µM is -1.5%.

What about the inhibition at 10 µM [31] of the same molecule?
Its inhibition at 10 µM is 0%.

What about the inhibition at 10 µM [32] of the same molecule?
Its inhibition at 10 µM is 8.2%.

What about the inhibition at 10 µM [33] of the same molecule?
The inhibition at 10 µM was 3.3%.

And the inhibition at 10 µM [34]?
Its inhibition at 10 µM is 3.1%.

What about the IC50 ([35]; GSK3β) of the same molecule?
The IC50 was 137 nM.

What about the inhibition at 10 µM [35, 40] of the same molecule?
The inhibition at 10 µM was 97.7%.

And the inhibition at 10 µM [36]?
Its inhibition at 10 µM is -4%.

What about the inhibition at 10 µM [37] of the same molecule?
The inhibition at 10 µM was -3%.

And the inhibition at 10 µM [38]?
Its inhibition at 10 µM is 3.1%.

And the inhibition at 10 µM [39]?
Its inhibition at 10 µM is 2.4%.
